Values quoted from earlier work as cited in patent publication US20260263394A1, “MEDICAL PATCH […] […] AGENT” (LTS LOHMANN THERAPIE-SYSTEME AG, priority 2023, published 2026).

Columns and labels:
[1] = molecular target: TRPV1 (Homo sapiens, UniProt Q8NER1); settings: relative to capsaicin
[2] = sub-microgram (less than 1/1,000,000th of a gram) quantities, oral

Sequence of TRPV1 (Q8NER1 whole entry, species assumed): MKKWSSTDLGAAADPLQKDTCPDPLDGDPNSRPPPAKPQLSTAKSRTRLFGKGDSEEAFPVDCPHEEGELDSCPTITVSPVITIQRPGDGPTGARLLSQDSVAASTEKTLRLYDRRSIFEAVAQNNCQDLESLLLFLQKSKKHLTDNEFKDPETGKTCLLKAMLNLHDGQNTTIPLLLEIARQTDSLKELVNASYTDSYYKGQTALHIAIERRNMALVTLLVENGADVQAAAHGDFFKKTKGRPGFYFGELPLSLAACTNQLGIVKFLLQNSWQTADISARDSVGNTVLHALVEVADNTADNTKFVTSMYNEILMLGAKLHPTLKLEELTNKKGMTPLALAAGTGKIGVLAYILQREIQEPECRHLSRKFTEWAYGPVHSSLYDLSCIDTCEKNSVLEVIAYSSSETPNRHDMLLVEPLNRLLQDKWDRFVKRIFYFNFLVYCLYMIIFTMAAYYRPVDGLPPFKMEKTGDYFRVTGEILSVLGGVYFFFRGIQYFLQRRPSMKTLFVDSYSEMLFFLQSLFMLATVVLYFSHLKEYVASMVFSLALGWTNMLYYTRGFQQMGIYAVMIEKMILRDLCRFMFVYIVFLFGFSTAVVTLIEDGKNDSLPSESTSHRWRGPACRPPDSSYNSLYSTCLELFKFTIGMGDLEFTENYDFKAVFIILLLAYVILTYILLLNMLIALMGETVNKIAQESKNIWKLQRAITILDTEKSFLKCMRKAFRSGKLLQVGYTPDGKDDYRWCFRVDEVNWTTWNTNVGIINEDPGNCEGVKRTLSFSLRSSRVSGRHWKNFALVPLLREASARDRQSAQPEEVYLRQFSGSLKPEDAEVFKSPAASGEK

For `C=C(C)[C@]12C[C@@H](C)[C@@]34O[C@@](Cc5ccccc5)(O[C@@H]1[C@@H]3C=C(COC(=O)Cc1ccc(O)c(OC)c1)C[C@]1(O)C(=O)C(C)=C[C@@H]41)O2` [Resiniferatoxin, [(1R,2R,6R,10S,11R,13R, 15R, 17R)-13-benzyl-6-hydroxy-4,17-dimethyl-5-oxo-15-(prop-1-en-2-yl)-12,14,18-trioxapentacyclo [11.4.1.0^1,10.0^2,6.0^11,15]octadeca-3,8-dien-8-yl]methyl 2-(4-hydroxy-3-methoxyphenyl)acetate], the “times higher binding affinity for TRPV1 than capsaicin” value [1] is listed as “about 500 times” and the “effect when ingested orally” value [2] is listed as “severe burning pain”.
